# Measurements as given in PMC4966929, “Two Distinct Cardiolipin Synthases Operate in Agrobacterium tumefaciens” (PLoS ONE, 2016).
# Biological target: T1, Cls2 (Agrobacterium fabrum, UniProt A9CHR9)
# T1 construct: gene cls; native full-length enzyme in A. tumefaciens crude extract (wild type and delta-cls1 lysates, assigned by loss in delta-cls2); about 54 kDa, not purified, no tag
# T1 sequence (A9CHR9 1-486): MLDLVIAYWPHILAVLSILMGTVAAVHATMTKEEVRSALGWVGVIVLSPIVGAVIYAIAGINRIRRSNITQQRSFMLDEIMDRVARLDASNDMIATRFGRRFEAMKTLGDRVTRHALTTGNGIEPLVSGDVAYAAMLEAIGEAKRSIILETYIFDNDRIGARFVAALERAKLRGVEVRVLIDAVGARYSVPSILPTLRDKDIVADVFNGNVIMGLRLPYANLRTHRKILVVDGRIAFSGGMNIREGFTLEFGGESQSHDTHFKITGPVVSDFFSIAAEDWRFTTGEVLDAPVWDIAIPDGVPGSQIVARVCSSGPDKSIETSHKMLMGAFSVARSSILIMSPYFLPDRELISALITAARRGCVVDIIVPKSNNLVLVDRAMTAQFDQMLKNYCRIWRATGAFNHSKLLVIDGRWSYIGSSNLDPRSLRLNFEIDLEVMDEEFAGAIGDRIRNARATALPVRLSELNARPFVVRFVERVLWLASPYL
# Assay: CL formation in crude extract of wild type and cls deletion strains, lipid extraction, 1D-TLC
# Format: biochemical
# Details: 0.4 mM lipid in micellar form, 0.02% Triton X-100, 50 mM Tris/HCl, 50 mM NaCl, pH 8, 30 C, 12 h; 300 ug total protein
structure (smiles),measurement,value
"CCCCCCCC/C=C\CCCCCCCC(=O)OC[C@H](COP(=O)(O)OCC(O)CO)OC(=O)CCCCCCC/C=C\CCCCCCCC (mixture of isomers) [PG, 1,2-dioleoyl-sn-glycero-3-phospho-rac-(1-glycerol)]","CL formation in crude extract of wild type and cls deletion strains, lipid extra",suggesting that PG-dependent CL accumulation is mediated by Cls2
